pIC50: −log10 of the molar value.
Target: GCN2 (Homo sapiens, UniProt Q9P2K8)
Experiment: TR-FRET biochemical assay for inhibition of GCN2 (Example 106, for Example 1-4BB)
Details: Table 8

GCN2, sequence (Q9P2K8 whole entry): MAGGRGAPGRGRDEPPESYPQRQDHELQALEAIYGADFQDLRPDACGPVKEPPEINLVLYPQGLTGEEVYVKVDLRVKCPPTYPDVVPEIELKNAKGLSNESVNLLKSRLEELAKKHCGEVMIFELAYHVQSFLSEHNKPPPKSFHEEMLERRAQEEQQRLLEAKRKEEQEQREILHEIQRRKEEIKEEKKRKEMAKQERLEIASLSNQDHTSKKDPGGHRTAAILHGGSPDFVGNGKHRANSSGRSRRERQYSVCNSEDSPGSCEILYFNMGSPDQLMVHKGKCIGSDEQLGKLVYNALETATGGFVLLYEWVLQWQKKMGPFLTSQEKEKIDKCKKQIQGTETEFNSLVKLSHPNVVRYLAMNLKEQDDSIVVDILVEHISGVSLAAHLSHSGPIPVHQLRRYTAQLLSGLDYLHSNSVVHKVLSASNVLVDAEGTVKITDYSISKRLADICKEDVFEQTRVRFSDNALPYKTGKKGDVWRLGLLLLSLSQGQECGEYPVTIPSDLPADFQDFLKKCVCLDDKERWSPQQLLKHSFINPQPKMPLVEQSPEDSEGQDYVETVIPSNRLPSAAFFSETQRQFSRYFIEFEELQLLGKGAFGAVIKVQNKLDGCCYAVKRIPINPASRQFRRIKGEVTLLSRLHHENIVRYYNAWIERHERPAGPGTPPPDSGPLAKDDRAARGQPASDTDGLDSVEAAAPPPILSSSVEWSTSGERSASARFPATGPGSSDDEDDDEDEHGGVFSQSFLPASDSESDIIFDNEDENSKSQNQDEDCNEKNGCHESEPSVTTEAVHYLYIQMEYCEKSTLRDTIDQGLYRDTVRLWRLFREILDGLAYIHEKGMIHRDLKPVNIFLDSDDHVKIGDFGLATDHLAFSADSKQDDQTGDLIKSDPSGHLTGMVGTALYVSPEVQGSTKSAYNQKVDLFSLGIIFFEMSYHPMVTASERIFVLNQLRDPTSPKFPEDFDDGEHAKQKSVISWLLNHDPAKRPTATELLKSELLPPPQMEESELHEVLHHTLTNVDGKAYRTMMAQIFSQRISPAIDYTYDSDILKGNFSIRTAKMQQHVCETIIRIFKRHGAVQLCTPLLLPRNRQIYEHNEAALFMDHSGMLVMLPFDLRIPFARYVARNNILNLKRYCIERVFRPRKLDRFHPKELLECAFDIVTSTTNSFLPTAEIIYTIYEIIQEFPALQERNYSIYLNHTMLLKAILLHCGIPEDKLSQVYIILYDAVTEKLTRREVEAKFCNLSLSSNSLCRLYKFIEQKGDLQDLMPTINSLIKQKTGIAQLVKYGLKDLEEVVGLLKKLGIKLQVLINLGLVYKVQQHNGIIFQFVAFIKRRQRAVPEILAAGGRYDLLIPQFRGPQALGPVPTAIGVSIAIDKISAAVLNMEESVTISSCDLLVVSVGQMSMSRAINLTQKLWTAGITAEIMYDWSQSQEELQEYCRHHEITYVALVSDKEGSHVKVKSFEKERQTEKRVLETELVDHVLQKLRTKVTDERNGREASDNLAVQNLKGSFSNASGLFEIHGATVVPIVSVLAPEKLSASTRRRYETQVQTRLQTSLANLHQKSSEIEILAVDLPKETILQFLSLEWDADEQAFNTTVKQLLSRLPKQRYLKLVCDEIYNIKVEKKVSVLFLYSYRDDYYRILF

pIC50 | SMILES
< 5.00 | Cc1oncc1S(=O)(=O)Nc1ccc(F)c(-c2ccc3c(-c4ncc[nH]4)n[nH]c3c2F)c1F [Example 2AE, N-(2,4-difluoro-3-(7-fluoro-3-(1H-imidazol-2-yl)-1H-indazol-6-yl)phenyl)-5-methylisoxazole-4-sulfonamide]
> 6.30 | COc1ncc(Cl)cc1S(=O)(=O)Nc1cccc(-c2ccc3c(-c4ncc[nH]4)n[nH]c3c2F)c1C [Example 2P, 5-chloro-N-(3-(7-fluoro-3-(1H-imidazol-2-yl)-1H-indazol-6-yl)-2-methylphenyl)-2-methoxypyridine-3-sulfonamide]
> 6.30 | Cn1cc(Cl)cc(S(=O)(=O)Nc2ccc(F)c(-c3ccc4c(-c5ncc[nH]5)n[nH]c4c3F)c2F)c1=O [Example 2AN, 5-chloro-N-(2,4-difluoro-3-(7-fluoro-3-(1H-imidazol-2-yl)-1H-indazol-6-yl)phenyl)-1-methyl-2-oxo-1,2-dihydro-pyridine-3-sulfonamide]
> 6.30 | Cc1ncccc1S(=O)(=O)Nc1ccc(F)c(-c2ccc3c(-c4ncc[nH]4)n[nH]c3c2F)c1F [Example 2, N-(2,4-difluoro-3-(7-fluoro-3-(1H-imidazol-2-yl)-1H-indazol-6-yl)phenyl)-2-methylpyridine-3-sulfonamide]
5.60 to 6.30 | Cn1cc(S(=O)(=O)Nc2ccc(F)c(-c3ccc4c(-c5ncc[nH]5)n[nH]c4c3F)c2F)c(Cl)n1 [Example 2H, 3-chloro-N-(2,4-difluoro-3-(7-fluoro-3-(1H-imidazol-2-yl)-1H-indazol-6-yl)phenyl)-1-methyl-1H-pyrazole-4-sulfonamide]
> 6.30 | O=S(=O)(Nc1ccc(F)c(-c2ccc3c(-c4ncc[nH]4)n[nH]c3c2F)c1F)c1ccccc1F [Example 2BT, N-(2,4-difluoro-3-(7-fluoro-3-(1H-imidazol-2-yl)-1H-indazol-6-yl)phenyl)-2-fluorobenzenesulfonamide]
> 6.30 | COc1ncc(Cl)cc1S(=O)(=O)Nc1ccc(F)c(-c2ccc3c(-c4ncc[nH]4)n[nH]c3c2F)c1Cl [Example 2T, 5-chloro-N-(2-chloro-4-fluoro-3-(7-fluoro-3-(1H-imidazol-2-yl)-1H-indazol-6-yl)phenyl)-2-methoxypyridine-3-sulfonamide]
5.60 to 6.30 | O=S(=O)(Nc1ccc(F)c(-c2ccc3c(-c4ncc[nH]4)n[nH]c3c2F)c1F)c1cccc(Cl)c1 [Example 2CN, 3-chloro-N-(2,4-difluoro-3-(7-fluoro-3-(1H-imidazol-2-yl)-1H-indazol-6-yl)phenyl)ben-zenesulfonamide]
> 6.30 | Cc1ccccc1S(=O)(=O)Nc1ccc(F)c(-c2ccc3c(-c4ncc[nH]4)n[nH]c3c2F)c1F [Example 2BR, N-(2,4-difluoro-3-(7-fluoro-3-(1H-imidazol-2-yl)-1H-indazol-6-yl)phenyl)-2-methylbenzenesulfonamide]
5.00 to 5.60 | Cn1cccc(S(=O)(=O)Nc2ccc(F)c(-c3ccc4c(-c5ncc[nH]5)n[nH]c4c3F)c2F)c1=O [Example 2AJ, N-(2,4-difluoro-3-(7-fluoro-3-(1H-imidazol-2-yl)-1H-indazol-6-yl)phenyl)-1-methyl-2-oxo-1,2-dihydro-pyridine-3-sulfonamide]
5.00 to 5.60 | CCn1cc(S(=O)(=O)Nc2ccc(F)c(-c3ccc4c(-c5ncc[nH]5)n[nH]c4c3F)c2F)cn1 [Example 2D, N-(2,4-difluoro-3-(7-fluoro-3-(1H-imidazol-2-yl)-1H-indazol-6-yl)phenyl)-1-ethyl-1H-pyrazole-4-sulfonamide]

Same assay, conditions: Table 9

pIC50 | SMILES
5.60 to 6.30 | COc1ncc(C#N)cc1S(=O)(=O)Nc1ccc(F)c(-c2ccc3c(C(=O)NCCCO)n[nH]c3c2F)c1F [Example 4C]
> 6.30 | COc1ncc(F)cc1S(=O)(=O)Nc1cc(F)cc(-c2ccc3c(-c4ncc[nH]4)n[nH]c3c2F)c1F [Example 3AS, N-(2,5-difluoro-3-(7-fluoro-3-(1H-imidazol-2-yl)-1H-indazol-6-yl)phenyl)-5-fluoro-2-methoxypyridine-3-sulfonamide]
> 6.30 | COc1nc(C)c(Cl)cc1S(=O)(=O)Nc1ccc(F)c(-c2ccc3c(C(=O)NCCCN(C)C)n[nH]c3c2F)c1F [Example 3DN, 6-(3-((5-chloro-2-methoxy-6-methylpyridine)-3-sulfon-amido)-2,6-difluorophenyl)-N-(3-(dimethylamino)propyl)-7-fluoro-1H-indazole-3-carboxamide]
< 5.00 | COc1ncc(C#N)cc1S(=O)(=O)Nc1cc(F)cc(-c2ccc3c(C(=O)NCCCN(C)C)n[nH]c3c2F)c1F [Example 3CE, 6-(3-((5-cyano-2-methoxy-pyridine)-3-sulfonamido)-2,5-difluorophenyl)-N-(3-(dimethylamino)propyl)-7-fluoro-1H-indazole-3-carboxamide]
> 6.30 | COc1ncc(Cl)cc1S(=O)(=O)Nc1cc(F)cc(-c2ncc3c(-c4ncc[nH]4)n[nH]c3c2F)c1F [Example 36, 5-chloro-N-[2,5-difluoro-3-[7-fluoro-3-(1H-imidazol-2-yl)-1H-pyrazolo[4,3-c]pyridin-6-yl]phenyl]-2-methoxy-pyridine-3-sulfonamide]
> 6.30 | Cc1ncc(F)cc1S(=O)(=O)Nc1cc(F)cc(-c2ccc3c(-c4ncc[nH]4)n[nH]c3c2F)c1F [Example 27, N-(2,5-Difluoro-3-(7-fluoro-3-(1H-imidazol-2-yl)-1H-indazol-6-yl)phenyl)-5-fluoro-2-methylpyridine-3-sulfonamide]
> 6.30 | COc1ncc(Cl)cc1S(=O)(=O)Nc1cccc(-c2cc3[nH]nc(C(=O)NCCCN(C)C)c3cn2)c1F [Example 35, 6-[3-[(5-chloro-2-methoxy-3-pyridyl)sulfonylamino]-2-fluoro-phenyl]-N-[3-(dimethylamino)propyl]-1H-pyrazolo[4,3-c]pyridine-3-carboxamide]
5.60 to 6.30 | COc1ncc(F)cc1S(=O)(=O)Nc1ccc(C#N)c(-c2ccc3c(C(N)=O)n[nH]c3c2F)c1F [Example 3BR, 6-(6-cyano-2-fluoro-3-((5-fluoro-2-methoxypyridine)-3-sulfonamido)phenyl)-7-fluoro-1H-indazole-3-carboxamide]
5.60 to 6.30 | COc1ncc(F)cc1S(=O)(=O)Nc1cc(F)cc(-c2ccc3c(C(=O)N[C@H]4CCN(C)C4)n[nH]c3c2F)c1F [Example 3BT, 6-(3-((5-fluoro-2-methoxy-pyridine)-3-sulfonamido)-2,5-difluorophenyl)-7-fluoro-N-((S)-1-methylpyrrolidin-3-yl)-1H-indazole-3-carboxamide]
< 5.00 | COc1ncc(F)cc1S(=O)(=O)Nc1cccc(-c2ccc3c(C4CCC(=O)N4)n[nH]c3c2F)c1F (centres unmarked) [Example 12, 5-Fluoro-N-(2-fluoro-3-(7-fluoro-3-(5-oxopyrrolidin-2-yl)-1H-indazol-6-yl)phenyl)-2-methoxypyridine-3-sulfonamide]
> 6.30 | Cc1c(CO)cc(F)cc1S(=O)(=O)Nc1ccc(F)c(-c2ccc3c(-c4ncc[nH]4)n[nH]c3c2F)c1F [Example 32, N-(2,4-Difluoro-3-(7-fluoro-3-(1H-imidazol-2-yl)-1H-indazol-6-yl)phenyl)-5-fluoro-3-(hydroxymethyl)-2-methylbenzenesulfonamide]
5.60 to 6.30 | COc1ncc(C#N)cc1S(=O)(=O)Nc1ccc(F)c(-c2ccc3c(C(=O)NCCCN(C)C)n[nH]c3c2F)c1F [Example 3BU, 6-(3-((5-cyano-2-methoxy-pyridine)-3-sulfonamido)-2,6-difluorophenyl)-N-(3-(dimethylamino)propyl)-7-fluoro-1H-indazole-3-carboxamide]
> 6.30 | COc1ncc(F)cc1S(=O)(=O)Nc1ncc(F)c(-c2ccc3c(-c4ncc[nH]4)n[nH]c3c2F)c1F [Example 28, N-(3,5-Difluoro-4-(7-fluoro-3-(1H-imidazol-2-yl)-1H-indazol-6-yl)pyridin-2-yl)-5-fluoro-2-methoxypyridine-3-sulfonamide]
> 6.30 | O=C1CCc2c1cc(F)cc2S(=O)(=O)Nc1ccc(F)c(-c2ccc3c(C(=O)Nc4cn[nH]c4)n[nH]c3c2F)c1F [Example 4AD]
> 6.30 | O=S(=O)(Nc1ccc(F)c(-c2ccc3c(-c4ncc[nH]4)n[nH]c3c2F)c1F)c1cccn2ccnc12 [Example 3O, N-(2,4-difIuoro-3-(7-fluoro-3-(1H-imidazol-2-yl)-1H-indazol-6-yl)phenyl)-imidazo[1,2-a]pyridine-8-sulfonamide]
< 5.00 | COc1ncc(F)cc1S(=O)(=O)Nc1ncc(F)c(-c2ccc3c(C(N)=O)n[nH]c3c2)c1F [Example 3P, 6-(3,5-difluoro-2-((5-fluoro-2-methoxypyridine)-3-sulfonamido)pyridin-4-yl)-1H-indazole-3-carboxamide]
> 6.30 | Cc1nc(C)c(S(=O)(=O)Nc2cc(F)cc(-c3ccc4c(-c5ncc[nH]5)n[nH]c4c3F)c2F)s1 [Example 3BY, N-(2,5-difluoro-3-(7-fluoro-3-(1H-imidazol-2-yl)-1H-indazol-6-yl)phenyl)-2,4-dimethylthiazole-5-sulfonamide]
> 6.30 | COc1ncc(F)cc1S(=O)(=O)Nc1ccc(F)c(-c2ccc3c(C(=O)NCC4CCN(C)CC4)n[nH]c3c2F)c1F [Example 3AK, 6-(2,6-difluoro-3-((5-fluoro-2-methoxypyridine)-3-sulfonamido)phenyl)-7-fluoro-N-((1-methylpiperidin-4-yl)methyl)-1H-indazole-3-carboxamide]
< 5.00 | Cc1ncccc1S(=O)(=O)Nc1ncc(F)c(-c2ccc3c(-c4ncc[nH]4)n[nH]c3c2F)c1F [Example 3L, N-(3,5-difluoro-4-(7-fluoro-3-(1H-imidazol-2-yl)-1H-indazol-6-yl)pyridin-2-yl)-2-methylpyridine-3-sulfonamide]
> 6.30 | COc1ncc(F)cc1S(=O)(=O)Nc1cc(F)cc(-c2ccc3c(C(N)=O)n[nH]c3c2F)c1F [Example 3AQ, 6-(2,5-difluoro-3-((5-fluoro-2-methoxypyridine)-3-sulfon-amido)phenyl)-7-fluoro-1H-indazole-3-carboxamide]
5.60 to 6.30 | COc1ncc(F)cc1S(=O)(=O)Nc1nccc(-c2ccc3c(C(N)=O)n[nH]c3c2F)c1F [Example 3Q, 6-(3-fluoro-2-((5-fluoro-2-methoxypyridine)-3-sulfonamido)pyridin-4-yl)-7-fluoro-1H-indazole-3-carboxamide]
